{"source": "patent US20070185020A1", "about": "“Methods and compositions for treating disorders of the extracellular matrix” (priority 2003, published 2007)", "key": {"CDA1 [1]": {"test_system": "CDA1", "assay": "CDA1 expression in kidney after angiotensin II infusion (immunohistochemistry)", "format": "in vivo, rat", "procedure": "Ang II was continuously infused into rats by subcutaneously inserted minipump for 3 days or 14 days at both pressor (60 ng/min) and non-pressor doses (6 ng/min) in eight week old male Sprague Dawley (SD) rats (Cao et al Z; The angiotensin type 2 receptor is expressed in adult rat kidney and promotes cellular proliferation and apoptosis. Kidney int. 2000; 58:2437-2451).\nCDA1 staining was performed using a rabbit antihuman CDA1 serum (Chai et al, 2001) in paraffin embedded sections. In brief, following dewaxing, paraffin embedded sections were treated in a microwave oven at low power for 10 minutes in 10 mmol/L sodium citrate buffer (pH 6.0). Endogenous peroxidase was inactivated using 3% hydrogen peroxide (H2O2) in methanol for 20 minutes. The sections were blocked with protein block agent for 20 minutes. The sections were incubated with rabbit antihuman CDA1 serum for 2 hour at room temperature. Biotinylated goat anti-rabbit immunogloblulin (DAKO A/S) was used as a second antibody, followed by avidin biotin horseradish peroxidase complex (ABC Elite kit, Victor Laboratories, Burlingame, Calif.). Detection was accomplished by reaction with 3,3′-diaminobenzidine tetrahydrochloride (DAB, Sigma Chemical Co., St Louis, Mo.) (Cao Z et al. The angiotensin type 2 receptor is expressed in adult rat kidney and promotes cellular proliferation and apoptosis. Kidney Int. 2000; 58:2437-2451."}, "CDA1 [2]": {"test_system": "CDA1", "assay": "CDA1 expression and fibrosis in the remnant kidney following subtotal nephrectomy (STNx)", "format": "in vivo, rat", "conditions": "preliminary data", "procedure": "Subtotal nephrectomy (STNx) were performed by right nephrectomy, followed by infarction of approximately two-thirds of the left kidney with selective ligation of all but one extrarenal branch of the left renal artery (CIA40). Anaesthesia was achieved by intraperitoneal injection of pentobarbitone sodium (60 mg/kg). Sham operated rats were used as controls. After operation, the animals were sacrificed at 1, 2, 4, 8 and 12 week and tissue collected for assessment of CDA1 expression and fibrotic growth factors as well as matrix proteins. CDA1 staining was performed using a rabbit antihuman CDA1 serum (Chai et al, 2001) in paraffin embedded sections. In brief, following dewaxing, paraffin embedded sections were treated in a microwave oven at low power for 10 minutes in 10 mmol/L sodium citrate buffer (pH 6.0). Endogenous peroxidase was inactivated using 3% hydrogen peroxide (H2O2) in methanol for 20 minutes. The sections were blocked with protein block agent for 20 minutes. The sections were incubated with rabbit antihuman CDA1 serum for 2 hour at room temperature. Biotinylated goat anti-rabbit immunogloblulin (DAKO A/S) was used as a second antibody, followed by avidin biotin horseradish peroxidase complex (ABC Elite kit, Victor Laboratories, Burlingame, Calif.). […]"}, "CDA1 [3]": {"test_system": "CDA1", "conditions": "in vitro; reported by other workers; cited from earlier work"}}, "data": [{"molecule": "CCCCC(=O)N(Cc1ccc(-c2ccccc2-c2nnn[nH]2)cc1)[C@H](C(=O)O)C(C)C", "note": "[valsartan]", "values": [{"measurement": "Effect on increased CDA1 expression following Ang II infusion", "setting": "CDA1 [1]; treatment with AT1 receptor antagonist, data not shown", "value": "prevented"}, {"measurement": "Effect on cell injury in remnant kidney", "setting": "CDA1 [2]", "value": "less cell injury"}, {"measurement": "Effect on CDA1 expression in remnant kidney", "setting": "CDA1 [2]; FIG. 3B", "value": "attenuation of CDA1 expression"}]}, {"molecule": "TGF β1: growth factor; CDA1 described as a TGF β1 target gene", "values": [{"measurement": "CDA1 expression", "setting": "CDA1 [3]", "value": "increased"}]}, {"molecule": "angiotensin II (DRVYIHPF; Angiotensin-2; UniProt P01015 25-32, looked up) [Ang II, peptide hormone infused into rats by minipump to stimulate CDA1 expression]", "values": [{"measurement": "CDA1 expression after angiotensin II infusion", "setting": "CDA1 [1]; immunohistochemical staining, proximal tubules, subcutaneous minipump infusion in Sprague Dawley rats", "value": "increased CDA1 expression"}]}]}
